How the values were obtained:
[1] = molecular target: T1, AlboD7L1 (Aedes albopictus, UniProt Q5MIW7); test: biochemical; type: binding; details: for ΔH (kcal/mol) ± SE / −TΔS: ITC, 30 °C, TBS pH 7.4, single-site model, N fixed = 1
T1 construct: made in house; host or cells: Escherichia coli BL21 (DE3) pLysS
Procedure: To identify the potential biological function of AlboD7L1, isothermal titration calorimetry (ITC) was used to determine its binding affinities to putative ligands that are known to affect inflammation and hemostasis (biogenic amines, leukotrienes, and thromboxane A2). Measurements were performed on a MicroCal VP-ITC (Malvern Panalytical, Westborough, MA, USA) at 30 °C and stir speed at 286 rpm. […] Protein and ligands were diluted in Tris-buffered saline (TBS-20 mM Tris-HCl, 150 mM NaCl, pH 7.4) and degassed under vacuum for 5 min using a MicroCal ThermoVac (Malvern Panalytical, Westborough, MA, USA). The AlboD7L1 concentrations were 2 μM, 3 μM, or 5 μM, and ligand concentrations were prepared at 10-fold the protein concentration (20 μM, 30 μM, or 50 μM), depending on protein/ligand combination for optimal ITC performance. For eicosanoid ligands, the solvent was first evaporated under a stream of nitrogen gas prior to dissolving in TBS, vortexed, and sonicated for 10 min (Branson 1510, Branson Ultrasonics, Danbury, CT, USA) to ensure dissolution. The protein sample volume in the cell was 1.4 mL, and ligand injections were delivered in 10 μL volume in a total of 31 injections. The data was analyzed using the MicroCal PEAQ-ITC analysis software v 1.21 (Malvern Panalytical, Westborough, MA, USA) by fitting to a single-site binding model to obtain the stoichiometry (N), the dissociation constant (KD), the enthalpy of binding (ΔH), and the entropy change (ΔS°) at a constant temperature (T).

[2] = tested on: AeD7L1; design: method as in PMID 19234127; details: cited from earlier work
[3] = tested on: platelet rich plasma; test: Ex vivo platelet aggregation (light transmission aggregometer); type: cell-based, human; details: lower U-46619 doses (Supplementary Figure S3A)
Procedure: Platelet rich plasma was obtained from normal healthy donors on the NCI IRB approved NIH protocol 99-CC-0168, “Collection and Distribution of Blood Components from Healthy Donors for In Vitro Research Use.” Blood donors provided written informed consent, and platelets were de-identified prior to distribution. Platelet aggregation was measured using a light transmission aggregometer (Chrono-Log Corporation, Havertown, PA, USA). Briefly, 300 μL of platelet rich plasma, diluted to approximately 2.5 × 10^5 platelets/μL in HEPES-Tyrode’s buffer (137 mM NaCl, […], 12 mM NaHCO3, 0.34 mM sodium phosphate monobasic, 1 mM MgCl2, 2.9 mM KCl, 5 mM HEPES, 5 mM glucose, 1% BSA, 0.03 mM EDTA, pH 7.4) were pre-stirred in the aggregometer for 1 min to monitor pre-aggregation effects. Recombinant AlboD7L1 or Tyrode’s buffer as negative control were added to the platelet rich plasma before adding the agonists. Aggregation agonists used in our studies included serotonin, epinephrine, collagen type I fibrils from equine tendons, U-46619, ADP or combination of agonists. Their concentrations are specified in the figure or figure captions. Technical duplicates were performed. For experiments shown in Figure 6 a Chrono-Log aggregometer model 500-CA was used while experiments shown in Supplementary Figure S3 were done in a Chrono-Log model 700.

T1 sequence (Q5MIW7 22-332 limits assumed): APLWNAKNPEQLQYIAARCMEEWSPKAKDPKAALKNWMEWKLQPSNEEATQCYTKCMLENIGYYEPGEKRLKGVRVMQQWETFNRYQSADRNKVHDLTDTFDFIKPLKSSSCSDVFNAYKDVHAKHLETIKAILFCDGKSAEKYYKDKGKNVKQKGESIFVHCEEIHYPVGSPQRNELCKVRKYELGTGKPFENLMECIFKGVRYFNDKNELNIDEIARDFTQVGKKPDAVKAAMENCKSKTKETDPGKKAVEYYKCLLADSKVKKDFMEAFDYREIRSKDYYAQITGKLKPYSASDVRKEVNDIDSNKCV

With `NCCc1c[nH]cn1` [Histamine, histamine] the Kd [1] was 0.278 ± 0.0662 µM, the “ΔH (kcal/mol) ± SE” value [1] was -7.47 ± 0.378 kcal/mol and the “−TΔS” value [1] was -6.82 kJ/mol.

For `NCCc1c[nH]c2ccc(O)cc12` [Serotonin, serotonin], the Kd [1] was 0.00451 ± 0.00266 µM, the “ΔH (kcal/mol) ± SE” value [1] was -13.7 ± 0.445 kcal/mol and the “−TΔS” value [1] was 8.91 kJ/mol.

For `CCCCC/C=C\C\C=C/C=C/C=C/[C@@H](SC[C@H](N)C(=O)O)[C@@H](O)CCCC(=O)O` [LTE4, leukotriene E4], the Kd [1] was 0.567 ± 0.115 µM, the “ΔH (kcal/mol) ± SE” value [1] was -3.98 ± 0.180 kcal/mol and the “−TΔS” value [1] was -19.6 kJ/mol.

In the case of `NC[C@H](O)c1ccc(O)c(O)c1` [Norepinephrine, norepinephrine], the Kd [1] is reported as 0.00367 ± 0.000994 µM, the “ΔH (kcal/mol) ± SE” value [1] is reported as -11.6 ± 0.186 kcal/mol and the “−TΔS” value [1] is reported as -0.485 kJ/mol.

For `CNC[C@H](O)c1ccc(O)c(O)c1` [Epinephrine, epinephrine], the Kd [1] was 4.11 ± 3.33 µM, the “ΔH (kcal/mol) ± SE” value [1] was -6.83 ± 0.809 kcal/mol and the “−TΔS” value [1] was -2.67 kJ/mol.

In the case of `NCCc1ccc(O)c(O)c1` [Dopamine, dopamine], the Kd [1] is reported as 0.011 ± 0.00219 µM, the “ΔH (kcal/mol) ± SE” value [1] is reported as -12.3 ± 0.197 kcal/mol and the “−TΔS” value [1] is reported as 5.15 kJ/mol.

With `CCCCC/C=C\C[C@@H](O)/C=C/C=C/C=C\[C@@H](O)CCCC(=O)O` [LTB4, leukotriene B4] the Kd [1] was 0.342 ± 0.065 µM, the “ΔH (kcal/mol) ± SE” value [1] was -2.74 ± 0.085 kcal/mol and the “−TΔS” value [1] was -26.1 kJ/mol.

With `CCCCC/C=C\C\C=C/C=C/C=C/[C@@H](SC[C@H](NC(=O)CC[C@H](N)C(=O)O)C(=O)NCC(=O)O)[C@@H](O)CCCC(=O)O` [LTC4] the Kd [1] was 0.0677 ± 0.0224 µM, the “ΔH (kcal/mol) ± SE” value [1] was -7.90 ± 0.350 kcal/mol and the “−TΔS” value [1] was -8.58 kJ/mol.

In the case of `CCCCC/C=C\C\C=C/C=C/C=C/[C@@H](SC[C@H](N)C(=O)NCC(=O)O)[C@@H](O)CCCC(=O)O` [LTD4], the Kd [1] is reported as 0.332 ± 0.0483 µM, the “ΔH (kcal/mol) ± SE” value [1] is reported as -5.00 ± 0.139 kcal/mol and the “−TΔS” value [1] is reported as -16.7 kJ/mol.

With `CCCCCC(O)C=CC1C2CC(CO2)C1CC=CCCCC(=O)O` (centres unmarked) [U-46619] the Kd [1] was 0.946 ± 0.269 µM, the “ΔH (kcal/mol) ± SE” value [1] was -8.54 ± 0.785 kcal/mol and the “−TΔS” value [1] was 0.791 kJ/mol. The “binding to AeD7L1” value [2] was “does not bind”.

In the case of `NCCc1c[nH]c2ccccc12` [Tryptamine, tryptamine], the Kd [1] is reported as 0.57 ± 0.0977 µM, the “ΔH (kcal/mol) ± SE” value [1] is reported as -6.43 ± 0.223 kcal/mol and the “−TΔS” value [1] is reported as -9.33 kJ/mol.

B1: AeD7L1: D7 long form salivary protein from Ae. aegypti (GenBank: AAA29347) (protein, UniProt P18153 18-321, looked up)
Long form salivary protein …: STGPFDPEEMLFTFTRCMEDNLEDGPNRLPMLAKWKEWINEPVDSPATQCFGKCVLVRTGLYDPVAQKFDASVIQEQFKAYPSLGEKSKVEAYANAVQQLPSTNNDCAAVFKAYDPVHKAHKDTSKNLFHGNKELTKGLYEKLGKDIRQKKQSYFEFCENKYYPAGSDKRQQLCKIRQYTVLDDALFKEHTDCVMKGIRYITKNNELDAEEVKRDFMQVNKDTKALEKVLNDCKSKEPSNAGEKSWHYYKCLVESSVKDDFKEAFDYREVRSQIYAFNLPKKQVYSKPAVQSQVMEIDGKQCPQ
In the case of B1, the “platelet aggregation initiated with lower doses of U-46619” value [3] is reported as “inhibits platelet aggregation”.
